Key:
[1] = test system: Vγ2/Vδ2 T cells
[2] = test system: Vγ2/Vδ2 T cells; remark: listed apart in the source
[3] = test system: γ/δ T cells; settings: cited from earlier work
[4] = test system: γ/δ T cells; settings: in vivo, iv; cited from earlier work

NCCCC(O)(P(=O)(O)O)P(=O)(O)O [Alendronate]
total CD3+ T cells that produced IFNγ [1]: 5-10% | subset showing intracellular IFNγ [2]: restricted to the Vγ2/Vδ2 subset

O=P(O)(O)C(O)(Cc1cccnc1)P(=O)(O)O [Risedronate]
activity for stimulating γ/δ T cells [3]: highly active

NCCC(O)(P(=O)(O)O)P(=O)(O)O [pamidronate, Pamidronate]
change in γ/δ T cell count after drug infusion [4]: increase in γ/δ T cell count
